Assay results: ChEMBL document CHEMBL5096161, “Medulloblastoma drugs in development: Current leads, trials and drawbacks” (Eur J Med Chem, 2021)
≈ marks a conversion by molar mass, not a printed value.

Key:
[1] = Inhibition of Wnt/beta-catenin transactivation signalling in Wnt3a stimulated human HEK 293 STF cells harbouring TCF/LEF1 luciferase reporter gene assessed as reduction in luciferase activity by TOPFlash luciferase reporter assay; assay type: cell-based
[2] = biological target: Casein kinase I isoform alpha (Homo sapiens, UniProt P48729); test: Binding affinity to CK1alpha (unknown origin) using casein as substrate by fluorescence based analysis
Casein kinase I isoform alpha, sequence (P48729 whole entry, canonical isoform): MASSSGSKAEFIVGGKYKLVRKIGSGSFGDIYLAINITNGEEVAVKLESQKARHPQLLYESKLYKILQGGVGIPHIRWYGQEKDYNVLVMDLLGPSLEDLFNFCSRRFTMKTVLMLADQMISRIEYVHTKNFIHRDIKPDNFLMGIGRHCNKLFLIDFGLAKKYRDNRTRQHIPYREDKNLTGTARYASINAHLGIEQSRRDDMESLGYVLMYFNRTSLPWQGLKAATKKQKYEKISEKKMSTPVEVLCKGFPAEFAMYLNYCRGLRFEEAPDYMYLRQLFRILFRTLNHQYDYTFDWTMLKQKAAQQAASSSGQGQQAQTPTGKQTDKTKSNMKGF

[3] = Inhibition of hedgehog signalling in mouse Shh Light II cells assessed as luciferase activity; assay type: cell-based
[4] = Antitumor activity against human HD-MB03 cells assessed as inhibition of cell growth incubated for 72 hrs by CellTiter-Glo luminescent assay; assay type: functional
Daoy [5] = test: Antitumor activity against human Daoy cells assessed as inhibition of cell growth incubated for 72 hrs by CellTiter-Glo luminescent assay; assay type: functional
ONS-76 = test: Antitumor activity against human ONS-76 cells assessed as inhibition of cell growth incubated for 72 hrs by CellTiter-Glo luminescent assay; assay type: functional
[6] = Antitumor activity against human UW228 cells assessed as inhibition of cell growth incubated for 72 hrs by CellTiter-Glo luminescent assay; assay type: functional
[7] = Antiproliferative activity against human Medulloblastoma cells expressing MYC and wild type Gfi1 assessed as reduction in cell viability incubated for 48 hrs by Cell TiterGlo luminescent assay; assay type: functional, cell-based
Protein smoothened [8] = biological target: Protein smoothened (Homo sapiens, UniProt Q99835); test: Binding affinity to human SMO (181 to 787 residues) expressed in human HEK293 cells assessed as radioactivity incubated for 2 hrs in presence of H3-labeled smo antagonist by ligand-displacement assay; assay type: cell-based
Protein smoothened (Homo sapiens, UniProt Q99835), sequence (Q99835 whole entry, the tested form may be a part): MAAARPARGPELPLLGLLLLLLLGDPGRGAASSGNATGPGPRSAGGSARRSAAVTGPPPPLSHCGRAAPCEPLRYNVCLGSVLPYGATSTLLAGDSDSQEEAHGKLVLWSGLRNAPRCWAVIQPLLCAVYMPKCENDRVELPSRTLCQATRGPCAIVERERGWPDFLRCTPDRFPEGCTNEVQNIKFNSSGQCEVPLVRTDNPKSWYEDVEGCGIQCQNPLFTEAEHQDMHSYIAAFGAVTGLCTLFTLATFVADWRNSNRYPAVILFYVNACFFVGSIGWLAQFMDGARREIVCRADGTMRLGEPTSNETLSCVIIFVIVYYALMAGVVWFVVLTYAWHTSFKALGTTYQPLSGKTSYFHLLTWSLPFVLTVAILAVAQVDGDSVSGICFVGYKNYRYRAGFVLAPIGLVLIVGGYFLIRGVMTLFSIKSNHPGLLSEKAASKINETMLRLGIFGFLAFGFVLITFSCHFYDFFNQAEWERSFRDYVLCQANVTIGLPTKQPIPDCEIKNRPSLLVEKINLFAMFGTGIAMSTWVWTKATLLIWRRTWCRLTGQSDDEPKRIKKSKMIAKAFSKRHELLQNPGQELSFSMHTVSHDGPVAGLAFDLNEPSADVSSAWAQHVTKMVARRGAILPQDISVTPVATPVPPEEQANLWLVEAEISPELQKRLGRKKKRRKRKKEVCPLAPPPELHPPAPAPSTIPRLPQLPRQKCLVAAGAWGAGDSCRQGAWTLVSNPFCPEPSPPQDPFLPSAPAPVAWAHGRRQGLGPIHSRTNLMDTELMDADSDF

[9] = Inhibition of Shh-induced hedgehog signalling pathway in mouse MEF cells expressing Gli-Luc reporter gene assessed as reduction in Gli1 transcription activity incubated for 48 hrs in presence of recombinant mouse shh stimulation by Bright-Glo luciferase Assay
Daoy [10] = test: Antitumor activity against human Daoy cells assessed as inhibition of cell proliferation; assay type: functional, cell-based
D283 Med [11] = test: Antitumor activity against human D283 Med cells assessed as inhibition of cell proliferation; assay type: functional, cell-based
[12] = Inhibition of hedgehog signalling in mouse Shh Light II cells transfected with Gli luciferase reporter gene assessed as Gli luciferase activity assessed as luciferase activity by luciferase assay; assay type: cell-based
[13] = Antiproliferative activity against neonatally irradiated Ptch1-/+ mouse medulloblastoma cells assessed as inhibition of cell proliferation; assay type: functional, cell-based; conditions: light or radiation study
[14] = Ratio of AUC in brain to plasma of C57BL/6 mouse at 2 mg/kg, po and measured after 24 hrs by LC/MS-MS analysis; assay type: ADME, organism-based; conditions: read-out: Ratio AUC
[15] = Antitumor activity against human Med-211 FH cells xenografted in athymic nude mouse assessed as tumor regression at 75 mg/kg, po QD for 28 days; assay type: functional; conditions: Med-211FH cell, 672 h, time 28 day, read-out: TGI
[16] = Antitumor activity against human Med-1712FH cells xenografted in athymic nude mouse assessed as tumor regression at 75 mg/kg, po QD for 28 days; assay type: functional; conditions: Med-1712FH cell, 672 h, time 28 day, read-out: TGI
D283 Med [17] = test: Antiproliferative activity against human D283 Med cells assessed as inhibition of cell proliferation incubated for 48 hrs by MTS assay; assay type: functional, cell-based
Daoy [18] = test: Antitumor activity against human Daoy cells assessed as inhibition of cell proliferation incubated for 72 hrs by CellTiter-Glo luminescent assay; assay type: functional, cell-based
D283 Med [19] = test: Antitumor activity against human D283 Med cells assessed as inhibition of cell proliferation incubated for 72 hrs by CellTiter-Glo luminescent assay; assay type: functional, cell-based
[20] = Prodrug conversion in ICR mouse brain assessed as Cmax of PF403 metabolite at 10 mg/kg, po and measured after 5 mins by LC-MS/MS analysis; assay type: ADME, organism-based; parameters: dose 10 mg/kg, time 5 min, route po; conditions: in vivo
Daoy [21] = test: Antiproliferative activity against human Daoy cells assessed as inhibition of cell proliferation measured after 4 days by WST-1 assay; assay type: functional, cell-based; conditions: 96 h
[22] = Antiproliferative activity against human D556 Med cells assessed as inhibition of cell proliferation measured after 4 days by WST-1 assay; assay type: functional, cell-based; conditions: 96 h
[23] = Antiproliferative activity against human Med1 cells assessed as reduction in cell viability; assay type: functional, cell-based
[24] = Antiproliferative activity against human Medulloblastoma cells expressing wild type SMO assessed as reduction in cell viability; assay type: functional, cell-based
Protein smoothened [25] = biological target: T1, Protein smoothened (Homo sapiens, UniProt Q99835, D473H); test: Antagonist activity at resistant Smo D473H mutant (unknown origin) expressed in mouse C3H 10T1/2 cells cotransfected with Gli reporter gene assessed as Gli luciferase activity incubated for 24 hrs by dual luciferase assay; assay type: functional, cell-based
T1 sequence (Q99835 28-787 D473H limits assumed): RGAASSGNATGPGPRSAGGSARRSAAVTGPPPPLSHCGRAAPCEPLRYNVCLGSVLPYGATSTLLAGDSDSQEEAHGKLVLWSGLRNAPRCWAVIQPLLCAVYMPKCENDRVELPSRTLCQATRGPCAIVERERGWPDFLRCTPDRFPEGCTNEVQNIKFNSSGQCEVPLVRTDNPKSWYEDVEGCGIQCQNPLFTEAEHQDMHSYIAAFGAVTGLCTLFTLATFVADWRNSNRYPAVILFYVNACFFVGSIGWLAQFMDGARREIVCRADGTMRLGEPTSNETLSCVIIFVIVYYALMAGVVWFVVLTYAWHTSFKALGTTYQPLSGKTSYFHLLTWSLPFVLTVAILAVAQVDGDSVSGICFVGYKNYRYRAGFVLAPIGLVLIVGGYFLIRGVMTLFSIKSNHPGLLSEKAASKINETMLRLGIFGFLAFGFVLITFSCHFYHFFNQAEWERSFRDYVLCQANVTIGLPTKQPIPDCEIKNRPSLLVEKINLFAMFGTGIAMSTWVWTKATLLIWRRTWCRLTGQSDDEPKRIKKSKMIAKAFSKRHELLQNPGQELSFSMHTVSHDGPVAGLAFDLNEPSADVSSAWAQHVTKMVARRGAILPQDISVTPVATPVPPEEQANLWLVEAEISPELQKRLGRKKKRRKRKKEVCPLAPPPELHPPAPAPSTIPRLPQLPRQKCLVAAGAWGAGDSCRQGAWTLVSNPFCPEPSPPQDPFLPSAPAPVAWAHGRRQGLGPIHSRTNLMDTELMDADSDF

[26] = Ratio of AUC (0 to infinity) in brain to plasma of C57BL mouse at 20 mg/kg, iv by HPLC/MS/MS method; assay type: ADME, organism-based; conditions: brain and plasma, read-out: Ratio AUC
Daoy [27] = test: Antiproliferative activity against human Daoy cells assessed as reduction in cell viability incubated for 48 hrs by MTT assay; assay type: functional, cell-based
D283 Med [28] = test: Antiproliferative activity against human D283 Med cells assessed as reduction in cell viability incubated for 48 hrs by MTT assay; assay type: functional, cell-based
Daoy [29] = test: Antiproliferative activity against human Daoy cells assessed as inhibition of cell proliferation incubated for 72 hrs by MTS assay; assay type: functional, cell-based
[30] = Antiproliferative activity against human UW228 cells assessed as inhibition of cell proliferation incubated for 72 hrs by MTS assay; assay type: functional, cell-based; conditions: UW228, 72 h
Protein smoothened [31] = biological target: T1, Protein smoothened; test: Inhibition of Smo D473H mutant (unknown origin) expressed in mouse NIH3T3 cells cotransfected with Gli luciferase reporter gene assessed as Gli luciferase activity incubated for 48 hrs by Bright-Glo reagent based luciferase assay; assay type: cell-based
[32] = Inhibition of hedgehog signalling in mouse NIH3T3 cells cotransfected with Gli luciferase reporter gene assessed as Gli luciferase activity incubated for 48 hrs by Bright-Glo reagent based luciferase assay; assay type: cell-based; conditions: NIH3T3, 48 h

Compound: Cc1cc(/C=C/c2ccc3cc(N(C)C)ccc3[n+]2C)c(C)n1-c1ccccc1
- IC50 [1]: 10 nM
- Kd [2]: 1 nM
- IC50 [3]: 10 nM

Compound: Cc1sc2c(c1C)C(c1ccc(Cl)cc1)=N[C@@H](CC(=O)Nc1ccc(O)cc1)c1nnc(C)n1-2 [BIRABRESIB]
- GI50 [4]: 160 nM
- GI50 (Daoy [5]): 160 nM
- GI50 (ONS-76): 160 nM
- GI50 [6]: 160 nM

Compound: c1ccc([C@@H]2C[C@H]2NC2CCNCC2)cc1
- IC50 [7]: 0.05 nM

Compound: Cc1cnc(-c2cc(N3CCN(C(=O)CCS(C)(=O)=O)CC3)ncc2Cl)c(C)c1
- IC50 (Protein smoothened [8]): 5.8 nM
- IC50 [9]: 2.7 nM

Compound: CCN1CCN(Cc2ccc(-c3cc4c(N[C@H](C)c5ccccc5)ncnc4[nH]3)cc2)CC1 [AEE-788]
- IC50 (Daoy [10]): 1700 nM
- IC50 (D283 Med [11]): 3.8 µM

Compound: Cn1c(-c2ccccc2C(F)(F)F)nnc1C12CCC(c3noc(C4CC(F)(F)C4)n3)(CC1)CC2
- IC50 [12]: 1500 nM
- IC50 [13]: 300 nM
- Kp at 24 h [14]: 0.6

Compound: CC(=O)c1c(C)c2cnc(Nc3ccc(N4CCNCC4)cn3)nc2n(C2CCCC2)c1=O [PALBOCICLIB]
- inhibition in vivo at 75 mg/kg [15]: 63%
- inhibition in vivo at 75 mg/kg [16]: 63%

Compound: Fc1ccc(CNc2ncnc3c2cnn3CC(Cl)c2ccc(Cl)cc2)cc1 (stereo not drawn)
- IC50 (D283 Med [17]): 4.89 µM

Compound: Cc1c(Cl)cccc1Nc1ccccc1C(=O)O [TOLFENAMIC ACID]
- IC50 (Daoy [18]): 21.6 µg/mL (≈ 82.5 µM)
- IC50 (D283 Med [19]): 20.8 µg/mL (≈ 79.5 µM)

Compound: COc1cc2c3c(c4ccc(OC(=O)C(C)(C)C)cc4c2cc1OC)C[C@@H]1CCCN1C3
- Cmax [20]: 37.76 ng/mL

Compound: O=[As][As+](=O)[O-] (stereo not drawn) [ARSENIC TRIOXIDE]
- IC50 (Daoy [21]): 400 nM
- IC50 [22]: 400 nM

Compound: Cc1sc2c(c1C)C(c1ccc(Cl)cc1)=N[C@@H](CC(=O)OC(C)(C)C)c1nnc(C)n1-2
- IC50 [23]: 50 nM
- IC50 [24]: 50 nM

Compound: Cc1c(Cc2ccccc2)nnc(N2CCN(c3cnc(C(C)(C)O)cn3)[C@H](C)C2)c1C [LEQ506]
- IC50 (Protein smoothened [25]): 96 nM
- Kp [26]: 0.69

Compound: O=C(/C=C/c1ccc(CN(CCO)CCc2c[nH]c3ccccc23)cc1)NO [DACINOSTAT]
- IC50 (Daoy [27]): < 100 nM
- IC50 (D283 Med [28]): < 200 nM

Compound: C=CCn1c(=O)c2cnc(Nc3ccc(N4CCN(C)CC4)cc3)nc2n1-c1cccc(C(C)(C)O)n1 [ADAVOSERTIB]
- IC50 (Daoy [29]): 150 nM
- IC50 [30]: 232 nM

Compound: CCc1cc2c(c(OCC(F)(F)F)c(C(=O)NC3CCN(C(=O)CO)CC3)n2C)c(=O)n1CC(=O)c1ccccc1 [TAK-441]
- IC50 (Protein smoothened [31]): 79 nM
- IC50 [32]: 4.4 nM
